Reference: patent US20080090916A1, “Compounds for Treating Urinary Incontinence” (priority 2005, published 2008)

Tests used:
[1] = tested on: pig vesicourethral junction sphincter muscle; experiment: Functional assay: dose response on isolated pig vesicourethral junction sphincter muscle strips; assay type: cell-based; details: for EC50: Sus scrofa, contraction, from dose response curve, read-out: relative potencies (EC50); for contractile response of muscle strip (representative traces): compound alone, FIG. 1; for maximum response: mean ±SEM
Excerpt: Samples of female white landrace pig bladder and urethra were obtained from freshly slaughtered pigs at the local abattoir. The pigs were killed by exsanguination after initial stunning by electric shock. The anus, rectum, bladder and urethra were then excised en bloc during evisceration and immediately transferred into pre oxygenated Krebs' solution (1 mmol/l: NaCl 120, KCl 5.9 NaHCO3 15.4, CaCl2 2.5, MgCl2 1.2, glucose 11.5) and transported to the laboratory, where they were stored in the refrigerator (at 4° C.) until ready to be processed.
The location of the vesicourethral junction sphincter was then identified. The bladders were inflated via a transurethral catheter with 200 ml. fluid. The fluid was then gently squeeze towards the outlet, until a sharp narrowing of the bladder base becomes apparent (Dass, 1997; Dass et al., 2001). Tissue sections from this region were then denuded of urothelium, and dissected transversely into a number of muscle strips.
Muscle strips measuring about 5-6 mm by 2-3 mm with an average weight of 7 mg were dissected, fine (5/0) silk threads were tied at each end of the strips and each strip mounted vertically in a 0.2 ml capacity, perspex organ bath between two recessed platinum electrodes through which electrical field stimulation (EFS) could be delivered. Strips were constantly superfused with Krebs' solution (37° C.) at a rate of 1.5 ml 1 min. The Krebs' solutions were gassed with 97% oxygen 3% carbon dioxide. Drugs were delivered by substituting drug containing solutions of the desired concentration for Krebs' solutions.
The apparatus comprised of six organ baths in parallel allowing the study of six strips simultaneously as described by Brading and Sibley (1983). Each channel was calibrated with a 1 g weight attached to the transducer before each experiment, and tissues were tensioned to 1 g after mounting. Isomeric tension generated by the strips was measured using isomeric force displacement transducers, Pioden Dynamometer UFI transducers (Pioden Controls Ltd, Canterbury, Kent) or AD Instruments MLT050/D force transducers, amplified (Harvard Transducer/Amplifier, Harvard Apparatus Ltd, Edenbridge, Kent) and analyzed using MacLab Data Acquisition system (AD Instruments, Sydney, Australia) or AD Instruments OCTAL Bridge Amplifier connected to Power Lab/8SP (AD Instruments, Sydney, Australia) and Chart v3.6 software (Macintosh) or Chart v5 (PC).
Dose response curves for the various compounds were constructed by testing one drug on a pair of strip in each experiment. The preparations were subjected to a sequence of successive 10 s […] applications of increasing doses of drugs with intervening washout periods.
1R,2S-methoxamine hydrochloride, the compound of formula (Ia) and the compound of formula (III) were made available by Norgine International Research, Middlesex.
Responses were reported as either grams of tension or % maximum force and given as mean values ±SEM. EC50 values were used as a measure of potency. The EC50 values were measured from the graph of dose response curve using the kaleidograph graphical software applications. Results were assessed using statistical analysis software, StatView 5.0 (SAS Institute Inc.) using ANOVA followed by Fisher's test. Significant difference between data was assumed with p<0.05.

[2] = Influence of intra-anally applied 1R,2S-methoxamine gel on micturition in subjects; assay type: in vivo; details: experimental studies with appreciable systemic levels
Description: The study was conducted according to the following protocol:
• a) 1% by weight 1R,2S-methoxamine in 4% w/w gel • b) 3% by weight 1R,2S-methoxamine in 4% w/w gel • The 4% w/w gel comprises 4 g of hydroxypropylmethyl cellulose in 96 ml of 0.5M acetate buffer. 1% by weight 1R,2S-methoxamine in 4% w/w gel comprises 1 g of 1R,2S-methoxamine in 99 g of the 4% gel. Investigation
In a study for other purposes including 44 subjects, each subject had either the 3% methoxamine gel or the 1% methoxamine gel applied intra-anally. About 1 g of gel was used.

[3] = tested on: vesicourethral junction sphincter muscle strips; experiment: Enzyme assay: regeneration of 1R,2S-methoxamine from compound (Ia) by gamma glutamyl transferase, reaction product tested on muscle strips; assay type: cell-based, pig; details: 0.3 mM
Description: Regeneration of 1R,2S-methoxamine from the Compound of Formula (Ia)
Into a clean glass vial (1 ml volume) the following reaction mixtures were pipetted as follows:
200 μl compound of formula (Ia), 10 mg/ml in Tris buffer (mol. wt. 376, therefore=2 mg compound of formula (Ia)=5.3 μMoles), 100 μl solution E
Reaction product of groups 1, 2 and 3 were only tested for biological activity after 30 minutes of incubation period at 37° C. while that of group 4 were also tested after, 10, 30 and 60 minutes of incubation period. A 5 h group of which reaction mixture indicated in group four were diluted by two fold after 30 min incubation were also tested for biological activity.
Gamma glutamyl transferase, 2-1-18 porcine kidney was purchased from Calzyme Labs San Luis Obispo, Calif. 93401 USA, glyclglycine was obtained from Acros Organics, New Jersey, USA while L-glutamic acid 5-(4-nitroanilide) was purchased from Fluka Chemie Switzerland.
The reaction mixture was incubated in HOT BOX oven, size one incubator made by Gallenpark, England, while the absorbance was measured (@λmax 405 nm), using Anthos 2020 UV/VIS spectrophotometer.
Representative traces of pig vesicourethral junction sphincter muscle response to various enzyme reaction products are shown in FIG. 3 and representative traces of pig proximal sphincter muscle response to various enzyme reaction products are shown in FIG. 4. The enzyme reaction products tested are as follows: • FIG. 3a-50 mM Tris HCl buffer; • FIG. 3b-50 mM Tris HCl buffer, gamma glutamyl transferase. • FIG. 3c-50 mM Tris HCl buffer, MgCl2.6H2O, glycylglycine, compound of formula (Ia); • FIG. 4a-50 mM Tris HCl buffer, MgCl2.6H2O, glycylglycine, gamma glutamyl transferase, compound of formula (Ia); • FIG. 4b-0.3 mM 1R,2S-methoxamine.

mini pigs = details: 1 mg/kg i.v., at maximum effect; cited from earlier work

| EC50 [1] | SMILES | biological activity retained relative to 1R,2S-methoxamine [1] | contractile response of muscle strip (representative traces) [1] | maximum response ([1]; observed at 10^−2M) | unwanted systemic side effects [2] | maximum response ([1]; at a concentration of 10^−3M) | less effective than Mg^2+-glycylglycine-compound of formula (Ia)-enzyme mixture [3] | contractile (bladder) response ([3]; no enzyme) | rise in diastolic pressure (mini pigs) | rise in systolic pressure (mini pigs) |
| --- | --- | --- | --- | --- | --- | --- | --- | --- | --- | --- |
| 495 µM | COc1ccc(OC)c([C@@H](O)[C@H](C)NC(=O)[C@@H](N)CCC(=O)O)c1 [compound of formula (III), (S)-4-Amino-4-[(1S,2R)-2-(2,5-dimethoxyphenyl)-2-hydroxy-1-methyl-ethylcarbamoyl]butyric acid] | approximately 10% | well defined contractile response | 1.33 g |  |  |  |  |  |  |
| 56.2 µM | COc1ccc(OC)c([C@@H](O)[C@H](C)N)c1 [1R,2S-methoxamine, (1R,2S)-2-amino-1-(2,5-dimethoxyphenyl)propan-1-ol] |  | pronounced well defined contractile response |  | elevation of blood pressure | 1.12 g | 29% | 1.15 g | 57% | 23% |
